We go through 33 molecules from patent US11028090B2 (Dong Wha Pharm. Co., Ltd., priority 2017, dated 2021).

SMILES strings stand for the structures. Read-outs that look alike come from different tables or passages of the source. Some results are limits rather than exact numbers.

In the assay the target is BRD4 (BD1+BD2) bromodomain (Homo sapiens (Human), UniProt O60885). In words: BRD4 binding inhibition (AlphaScreen, GST-BRD4 vs tetraacetylated histone H4 peptide). The protocol:
A mixture comprising 100 nM GST-BRD4 (BD1+BD2) and 100 nM biotinylated acetyl-histone H4 (Lys5,8,12,16) peptide was prepared in assay buffer (50 mM HEPES pH 7.4; 25 mM NaCl; 0.05% Tween 20; 0.1% bovine serum albumin (BSA); 10 mM dithiothreitol (DTT)). After adding 6 μl of the mixture to the diluent, 6 μl of the pre-mixed AlphaLISA Glutathione Acceptor Beads and AlphaScreen Streptavidin Donor Beads (PerkinElmer, 10 μg/ml in assay buffer, respectively) was added thereto. The samples were incubated in the dark at room temperature for 30 minutes (shaking at 300 rpm). Then, the signals were measured with PerkinElmer Envision HTS Multilabel Reader using an alpha screen protocol of PerkinElmer. Each plate contained the negative control in which biotinylated acetyl-histone H4 peptide and GST-BRD4 (BD1+BD2) were replaced by assay buffer. In the case of using the software GraphPad Prism for calculation, the negative control point was input as a low standard value. The positive control (probe molecule l-BET762 containing protein/peptide mixture) proceeded to pipetting.

Setting [1] is: GST-BRD4 (BD1+BD2) / biotinylated acetyl-histone H4 (Lys5,8,12,16) peptide, read-out: IC50, BRD4 binding inhibition.
Setting [2] is: GST-BRD4 (BD1+BD2) vs biotinylated acetyl-histone H4 peptide, AlphaScreen, read-out: BRD4 IC50.

For orientation: IC50 means the midpoint of a concentration-inhibition curve. As for `COCCOc1ccc2c(c1)nc(NCCCCNC(=O)[C@@H](N)C(C)C)c1nnc(C)n12` (stereo in doubt) [Example 397, 2-amino-N-{4-[7-(2-methoxy-ethoxy)-1-methyl-[1,2,4]triazolo[4,3-a]quinoxaline-4-ylamino]-butyl}-3-methyl-butyramide], the IC50 was at most 50 nM under setting [1] and 29 nM under setting [2].
`Cc1nnc2c(NCCCCNC(=O)[C@H](O)C(C)C)nc3ccccc3n12` [Example 9, 2-(R)-hydroxy-N-[4-(1-methyl-[1,2,4]triazolo[4,3-a]quinoxaline-4-ylamino)-butyl]-3-methyl-butyramide]: the IC50 is at most 50 nM under setting [1] and 40 nM under setting [2].
Consider `Cc1cccc(C)c1C(=O)NCCCCNc1nc2ccccc2n2c(C)nnc12` [Example 13, 2,6-dimethyl-N-[4-(1-methyl-[1,2,4]triazolo[4,3-a]quinoxaline-4-ylamino)-butyl]-benzamide], for which the IC50 under setting [2] was determined as 57 nM.
As to `Cc1nnc2c(NCCCCNC(=O)c3ccc(Cl)cc3)nc3ccccc3n12` [Example 14, 4-chloro-N-[4-(1-methyl-[1,2,4]triazolo[4,3-a]quinoxaline-4-ylamino)-butyl]-benzamide], the IC50 is at most 50 nM under setting [1] and 41 nM under setting [2].
The matching figures for `Cc1nnc2c(NCCCCNC(=O)c3cccc(Cl)c3)nc3ccccc3n12` [Example 15, 3-chloro-N-[4-(1-methyl-[1,2,4]triazolo[4,3-a]quinoxaline-4-ylamino)-butyl]-benzamide]: at most 50 nM and 27 nM.
As to `Cc1nnc2c(NCCCCNC(=O)c3ccc(Cl)c(Cl)c3)nc3ccccc3n12` [Example 16, 3,4-dichloro-N-[4-(1-methyl-[1,2,4]triazolo[4,3-a]quinoxaline-4-ylamino)-butyl]-benzamide], the IC50 reads like this: under setting [1], at most 50 nM; under setting [2], 44 nM.
With `Cc1nnc2c(NCCCCNC(=O)c3cccc(Cl)c3Cl)nc3ccccc3n12` [Example 17], under setting [2], the IC50 is 51 nM.
Regarding `Cc1nnc2c(NCCCCNC(=O)c3ccc(Cl)nc3Cl)nc3ccccc3n12` [Example 19, 2,6-dichloro-N-[4-(1-methyl-[1,2,4]triazolo[4,3-a]quinoxaline-4-ylamino)-butyl]-nicotinamide], the half-maximal inhibitory concentration (IC50) runs as follows: under setting [1], at most 50 nM; under setting [2], 36 nM.
Regarding `Cc1nnc2c(NCCCCNC(=O)c3ccc(Cl)nc3)nc3ccccc3n12` [Example 20, 6-chloro-N-[4-(1-methyl-[1,2,4]triazolo[4,3-a]quinoxaline-4-ylamino)-butyl]-nicotinamide], the IC50 is at most 50 nM under setting [1] and 43 nM under setting [2].
On to `Cc1ccc(C(=O)NCCCCNc2nc3ccccc3n3c(C)nnc23)c(Cl)n1` [Example 21, 2-chloro-6-methyl-N-[4-(1-methyl-[1,2,4]triazolo[4,3-a]quinoxaline-4-ylamino)-butyl]-nicotinamide], for which, under setting [2], the IC50 amounted to 57 nM.
As for `Cc1nnc2c(NCCCCNC(=O)NC(C)(C)C)nc3ccccc3n12` [Example 22, 1-tert-butyl-3-[4-(1-methyl-[1,2,4]triazolo[4,3-a]quinoxaline-4-ylamino)-butyl]-urea], the IC50 under setting [2] turned out to be 81 nM.
Same read-out and setting: in the case of `Cc1nnc2c(NCCCCNC(=O)Nc3cccc(F)c3)nc3ccccc3n12` [Example 24, 1-(3-fluoro-phenyl)-3-[4-(1-methyl-[1,2,4]triazolo[4,3-a]quinoxaline-4-ylamino)-butyl]-urea] it was 67 nM; in that of `Cc1nnc2c(NCCCCNC(=O)OCc3ccccc3)nc3ccccc3n12` [Example 25, [4-(1-methyl-[1,2,4]triazolo[4,3-a]quinoxaline-4-ylamino)-butyl]-carbamic acid benzylester], 55 nM.
With `Cc1nnc2c(NCCCCNC(=O)C(C)(C)C)nc3cc(Cl)c(Cl)cc3n12` [Example 28, N-[4-(7,8-dichloro-1-methyl-[1,2,4]triazolo[4,3-a]quinoxaline-4-ylamino)-butyl]-2,2-dimethyl-propionamide], under setting [2], the IC50 stood at 96 nM.
Still for that read-out and setting: to `Cc1nnc2c(NCCCCNC(=O)C(C)C)nc3cc(Cl)c(Cl)cc3n12` [Example 29, N-[4-(7,8-dichloro-1-methyl-[,2,4]triazolo[4,3-a]quinoxaline-4-ylamino)-butyl]-isobutyramide] belongs 98 nM.
Take `Cc1nnc2c(NCCCCNC(=O)CC(C)C)nc3cc(Cl)c(Cl)cc3n12` [Example 30, N-[4-(7,8-dichloro-1-methyl-[1,2,4]triazolo[4,3-a]quinoxaline-4-ylamino)-butyl]-3-methyl-butyramide]: under setting [1], the IC50 was at most 10 nM.
Consider `Cc1nnc2c(NCCCCNC(=O)c3ccccc3)nc3cc(Cl)c(Cl)cc3n12` [Example 31, N-[4-(7,8-dichloro-1-methyl-[1,2,4]triazolo[4,3-a]quinoxaline-4-ylamino)-butyl]-benzamide], for which the IC50 is, setting by setting: under setting [1], at most 50 nM; under setting [2], 31 nM.
As to `Cc1nnc2c(NCCCCNC(=O)c3ccccc3Cl)nc3cc(Cl)c(Cl)cc3n12` [Example 32], under setting [2], the IC50 came out at 89 nM.
Same read-out and setting: in the case of `Cc1cc2nc(NCCCCNC(=O)OC(C)(C)C)c3nnc(C)n3c2cc1C` [Example 34, [4-(1,7,8-trimethyl-[1,2,4]triazolo[4,3-a]quinoxaline-4-ylamino)-butyl]-carbamic acid-tert-butylester] it was 81 nM; in that of `Cc1nnc2c(NCCCCNC(=O)[C@H](O)C(C)C)nc3cc(F)c(F)cc3n12` [Example 38, N-[4-(7,8-difluoro-1-methyl-[1,2,4]triazolo[4,3-a]quinoxaline-4-ylamino)-butyl]-2-(R)-hydroxy-3-methyl-butyramide], 97 nM.
Same read-out and setting: in the case of `Cc1ccc2nc(NCCCCNC(=O)OC(C)(C)C)c3nnc(C)n3c2c1` [Example 40, [4-(1,8-dimethyl-[1,2,4]triazolo[4,3-a]quinoxaline-4-ylamino)-butyl]-carbamic acid-tert-butylester] it was 69 nM; in that of `Cc1ccc2nc(NCCCCNC(=O)NC(C)(C)C)c3nnc(C)n3c2c1` [Example 44, 1-tert--butyl-3-[4-(1,8-dimethyl-[1,2,4]triazolo[4,3-a]quinoxaline-4-ylamino)-butyl]-urea], 72 nM.
`Cc1ccc2nc(NCCCCNC(=O)c3ccccc3)c3nnc(C)n3c2c1` [Example 45, N-[4-(1,8-dimethyl-[1,2,4]triazolo[4,3-a]quinoxaline-4-ylamino)-butyl]-benzamide]: the IC50 under setting [1] was at most 50 nM.
As to `Cc1ccc2nc(NCCCCNC(=O)Nc3ccccc3)c3nnc(C)n3c2c1` [Example 46, 1-[4-(1,8-dimethyl-[1,2,4]triazolo[4,3-a]quinoxaline-4-ylamino)-butyl]-3-phenyl-urea], under setting [2], the IC50 amounted to 73 nM.
With `Cc1nnc2c(NCCCCNC(=O)OC(C)(C)C)nc3ccc(F)cc3n12` [Example 47, [4-(8-fluoro-1-methyl-[1,2,4]triazolo[4,3-a]quinoxaline-4-ylamino)-butyl]-carbamic acid-tert-butylester], the IC50 is, setting by setting: under setting [1], at most 50 nM; under setting [2], 42 nM.
With `Cc1nnc2c(NCCCCNC(=O)c3ccccc3)nc3ccc(F)cc3n12` [Example 51, N-[4-(8-fluoro-1-methyl-[1,2,4]triazolo[4,3-a]quinoxaline-4-ylamino)-butyl]-benzamide], the IC50 under setting [1] was at most 50 nM.
For the molecule `Cc1nnc2c(NCCCCNC(=O)NC(C)(C)C)nc3ccc(F)cc3n12` [Example 52, 1-tert-butyl-3-[4-(8-fluoro-1-methyl-[1,2,4]triazolo[4,3-a]quinoxaline-4-ylamino)-butyl]-urea], under setting [2], the IC50 came out at 70 nM.
With `Cc1nnc2c(NCCCCNC(=O)Nc3ccccc3)nc3ccc(F)cc3n12` [Example 53, 1-[4-(8-fluoro-1-methyl-[1,2,4]triazolo[4,3-a]quinoxaline-4-ylamino)-butyl]-3-phenyl-urea], the IC50 under setting [2] is 60 nM.
Regarding `Cc1nnc2c(NCCCCNC(=O)OC(C)(C)C)nc3ccc(Cl)cc3n12` [Example 54, [4-(8-chloro-1-methyl-[1,2,4]triazolo[4,3-a]quinoxaline-4-ylamino)-butyl]-carbamic acid-tert-butylester], the IC50 is, setting by setting: under setting [1], at most 50 nM; under setting [2], 50 nM.
The matching figures for `COCC(=O)NCCCCNc1nc2cc(OC)c(OC)cc2n2c(C)nnc12` [Example 80, N-[4-(7,8-dimethoxy-1-methyl-[1,2,4]triazolo[4,3-a]quinoxaline-4-ylamino)-butyl]-2-methoxy-acetamide]: at most 50 nM and 28 nM.
The matching figures for `COc1cc2nc(NCCCCNC(=O)[C@H](O)C(C)C)c3nnc(C)n3c2cc1OC` [Example 82, N-[4-(7,8-dimethoxy-1-methyl-[1,2,4]triazolo[4,3-a]quinoxaline-4-ylamino)-butyl]-2-(R)-hydroxy-3-methyl-butyramide]: at most 50 nM and 12 nM.
Take `COc1cc2nc(NCCCCNC(=O)COC(C)=O)c3nnc(C)n3c2cc1OC` [Example 87]: the IC50 was at most 50 nM under setting [1] and 27 nM under setting [2].
On to `CCNC(=O)NCCCCNc1nc2cc(OC)c(OC)cc2n2c(C)nnc12` [Example 89, 1-[4-(7,8-dimethoxy-1-methyl-[1,2,4]triazolo[4,3-a]quinoxaline-4-ylamino)-butyl]-3-ethyl-urea], for which the IC50 reads like this: under setting [1], at most 50 nM; under setting [2], 47 nM.
